Key:
Sirt3 (hSirt3 118-399) [1] = molecular target: T1, Sirt3 (hSirt3 118-399) (Homo sapiens, UniProt Q9NTG7); assay: fluorescence deacetylation assay; type: biochemical; settings: read-out: % control at 10 μM
T1 sequence (Q9NTG7 118-399): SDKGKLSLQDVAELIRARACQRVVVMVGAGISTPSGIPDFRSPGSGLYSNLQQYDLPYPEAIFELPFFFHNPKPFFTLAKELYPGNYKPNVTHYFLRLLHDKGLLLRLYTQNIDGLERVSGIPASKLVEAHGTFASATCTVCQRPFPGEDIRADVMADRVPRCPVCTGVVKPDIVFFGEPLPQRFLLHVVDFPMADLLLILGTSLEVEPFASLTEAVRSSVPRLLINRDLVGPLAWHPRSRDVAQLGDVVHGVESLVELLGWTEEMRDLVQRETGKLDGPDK

Sirt3 (hSirt3 118-399) [2] = molecular target: T1, Sirt3 (hSirt3 118-399); assay: switchSENSE kinetics; type: binding; settings: absence of cofactors; HDAC buffer, 5% DMSO, 25 °C

remaining activity at 10 µM (Sirt3 (hSirt3 118-399) [1]) | Kd (Sirt3 (hSirt3 118-399) [2]) | SMILES
76.5% | – | CCCCNC(=O)[C@@H](Cc1ccc(Cl)cc1)NC(=O)CSC(=S)c1ccccc1 [AA12AC71]
83.1% | – | C=C(CC)C(=O)c1ccc(OCC(=O)N[C@H](Cc2ccc(Cl)cc2)C(=O)NCCCC)c(Cl)c1Cl [AA12AC92]
75.7% | – | C=C(CC)C(=O)c1ccc(OCC(=O)NC2c3ccccc3CCc3cc(OCC(=O)NCCCC)ccc32)c(Cl)c1Cl (centres unmarked) [AA8AC92]
72.4% | – | CCCCNC(=O)COc1ccc2c(c1)CCc1ccccc1C2NC(=O)CSC(=S)c1ccccc1 (centres unmarked) [AA8AC71]
– | 4.56 ± 3.5 µM | CCCCNC(=O)COc1ccc2c(c1)CCc1ccccc1C2NC(=O)CCCOc1cc([N+](=O)[O-])c(C(C)O)cc1OC (centres unmarked) [AA8AC40]

Reference: paper doi:10.1101/2022.01.05.475007v1 (biorxiv, 2022)
